Usually melting point stands for the temperature, or range, at which the solid turns liquid.

In US20040087571A1, “Methods of using CCR1 antagonists as immunomodulatory agents” (Pfizer Inc, priority 2002, published 2004) one finds melting point data, which are given here for 21 molecules.

The molecule `CNC(=O)[C@H](CC(C)C)C[C@H](O)[C@H](CC(C)C)NC(=O)c1cnc2ccccc2c1` [Example 10, Quinoline-3-carboxylic acid (2(S)-hydroxy-1(S)-isobutyl-6-methyl-4(R)-methylcarbamoyl-heptyl)-amide] gave a melting point of 155 to 157 °C.
The same measure for `CC(C)C[C@H](C[C@H](O)[C@H](CC1CCCCC1)NC(=O)c1cnc2ccccc2c1)C(N)=O` [Example 20, Quinoline-3-carboxylic acid (4(R)-carbamoyl-1(S)-cyclohexylmethyl-2(S)-hydroxy-6-methyl-heptyl)-amide]: 186 to 188 °C; for `CNC(=O)[C@H](CC1CCCCC1)C[C@H](O)[C@H](CC1CCCCC1)NC(=O)c1cnc2ccccc2c1` [Example 21, Quinoline-3-carboxylic acid (5-cyclohexyl-1(S)-cyclohexylmethyl-2(S)-hydroxy-4(R)-methylcarbamoyl-pentyl)-amide]: 170.5 to 172.5 °C; for `CC(C)C[C@H](C[C@H](O)C(Cc1ccccc1)NC(=O)c1cnc2ccccc2c1)C(=O)NCCO` (stereo partly drawn) [Example 33, Quinoline-3-carboxylic acid [1-benzyl-2(S)-hydroxy-4(R)-(2-hydroxy-ethylcarbamoyl)-6-methyl-heptyl]-amide]: 158 to 162 °C.
In turn, `CNC(=O)[C@H](CC(C)C)C[C@H](O)[C@H](Cc1ccc(OCc2ccccc2)cc1)NC(=O)c1cnc2ccccc2n1` [Example 39, Quinoxaline-2-carboxylic acid [1(S)-(4-benzyloxy-benzyl)-2(S)-hydroxy-6-methyl-4(R)-methylcarbamoyl-heptyl]-amide] had a melting point of 196 to 197 °C.
Regarding `CNC(=O)[C@H](CC(C)C)C[C@H](O)[C@H](Cc1ccc(OCc2ccccc2)cc1)NC(=O)c1cnc2ccccc2c1` [Example 40, Quinoline-3-carboxylic acid [1(S)-(4-benzyloxy-benzyl)-2(S)-hydroxy-6-methyl-4(R)-methylcarbamoyl-heptyl]-amide], the melting point is 178 to 179 °C.
The same measure for `CNC(=O)[C@H](CC(C)C)C[C@H](O)[C@H](Cc1ccc(O)cc1)NC(=O)c1cnc2ccccc2c1` [Example 44, Quinoline-3-carboxylic acid [2(S)-hydroxy-1(S)-(4-hydroxy-benzyl)-6-methyl-4(R)-methylcarbamoyl-heptyl]-amide]: 220.5 to 222.5 °C.
In the case of `CC(C)CCNC(=O)[C@H](CC(C)C)C[C@H](O)[C@H](Cc1ccccc1)NC(=O)c1cnc2ccccc2c1` [Example 48, Quinoline-3-carboxylic acid [1(S)-benzyl-2(S)-hydroxy-6-methyl-4(R)-(3-methyl-butylcarbamoyl)-heptyl]-amide], the melting point is 153 to 154 °C.
Under `CNC(=O)[C@H](CC(C)C)C[C@H](O)[C@H](Cc1ccc(OS(=O)(=O)C(F)(F)F)cc1)NC(=O)c1cnc2ccccc2c1` [Example 50, Trifluoro-methanesulfonic acid 4-{3(S)-hydroxy-7-methyl-5(R)-methylcarbamoyl-2(S)-[(quinoline-3-carbonyl)-amino]-octyl}-phenyl ester] stands 168 to 170 °C; under `CNC(=O)[C@H](CC1CCCCC1)C[C@H](O)[C@H](CC1CCCCC1)NC(=O)c1cc2ccccc2cn1` [Example 59, Isoquinoline-3-carboxylic acid (5-cyclohexyl-1(S)-cyclohexylmethyl-2(S)-hydroxy-4(R)-methylcarbamoyl-pentyl)-amide], 205 to 207 °C; under `CNC(=O)[C@H](CC1CCCCC1)C[C@H](O)[C@H](CC1CCCCC1)NC(=O)c1cncc2ccccc12` [Example 62, Isoquinoline-4-carboxylic acid (5-cyclohexyl-1(S)-cyclohexylmethyl-2(S)-hydroxy-4(R)-methylcarbamoyl-pentyl)-amide], 220.5 to 224 °C.
`CNC(=O)[C@H](CC(C)C)C[C@H](O)[C@H](Cc1ccc(O)cc1)NC(=O)c1cnc2ccccc2n1` [Example 65, Quinoxaline-2-carboxylic acid [2(S)-hydroxy-1(S)-(4-hydroxy-benzyl)-6-methyl-4(R)-methylcarbamoyl-heptyl]-amide] yielded a melting point of 170 to 172 °C.
In turn, `CNC(=O)[C@H](CC(C)C)C[C@H](O)[C@H](Cc1ccc(Cl)cc1)NC(=O)c1cnc2ccccc2c1` [Example 67, Quinoline-3-carboxylic acid [1(S)-(4-chloro-benzyl)-2(S)-hydroxy-6-methyl-4(R)-methylcarbamoyl-heptyl]-amide] had a melting point of 212.5 to 213.5 °C.
Under `CNC(=O)[C@H](CC1CCCCC1)C[C@H](O)[C@H](Cc1ccc(Cl)cc1)NC(=O)c1cnc2ccccc2c1` [Example 71, Quinoline-3-carboxylic acid [1(S)-(4-chloro-benzyl)-5-cyclohexyl-2(S)-hydroxy-4(R)-methylcarbamoyl-pentyl]-amide] stands 198 to 201 °C.
The same measure for `CNC(=O)[C@H](CC(C)C)C[C@H](O)[C@H](Cc1ccc(F)cc1)NC(=O)c1cnc2ccccc2c1` [Example 89, Quinoline-3-carboxylic acid [1(S)-(4-fluoro-benzyl)-2(S)-hydroxy-6-methyl-4(R)-methylcarbamoyl-heptyl]-amide]: 184 to 186 °C; for `CNC(=O)[C@H](CC(C)C)C[C@H](O)[C@H](Cc1ccc(F)cc1)NC(=O)c1cnc2ccccc2n1` [Example 90, Quinoxaline-2-carboxylic acid [1(S)-(4-fluoro-benzyl)-2(S)-hydroxy-6-methyl-4(R)-methylcarbamoyl-heptyl]-amide]: 153 to 156 °C; for `CNC(=O)[C@H](CC(C)C)C[C@H](O)[C@H](CC1CCC(F)(F)CC1)NC(=O)c1cnc2ccccc2n1` [Example 108, Quinoxaline-2-carboxylic acid [1(S)-(4,4-difluoro-cyclohexylmethyl)-2(S)-hydroxy-6-methyl-4(R)-methylcarbamoyl-heptyl]-amide]: 95 to 98 °C.
The same measure for `CNC(=O)[C@H](CC(C)C)C[C@H](O)[C@H](Cc1ccc2ccccc2c1)NC(=O)c1cnc2ccccc2n1` [Example 127, Quinoxaline-2-carboxylic acid (2(S)-hydroxy-6-methyl-4(R)-methylcarbamoyl-1(S)-naphthalen-2-ylmethyl-heptyl)-amide]: 121 to 123 °C.
`CNC(=O)[C@H](CC1CCC(F)(F)CC1)C[C@H](O)[C@H](Cc1ccccc1)NC(=O)c1cnc2ccccc2n1` [Example 132, Quinoxaline-2-carboxylic acid [1(S)-benzyl-5-(4,4-difluoro-cyclohexyl)-2(S)-hydroxy-4(R)-methylcarbamoyl-pentyl]-amide]: the melting point was 170 to 172 °C.
For `NC(=O)[C@H](CC1CCC(F)(F)CC1)C[C@H](O)[C@H](Cc1ccccc1)NC(=O)c1cnc2ccccc2n1` [Example 133, Quinoxaline-2-carboxylic acid [1(S)-benzyl-4(R)-carbamoyl-5-(4,4-difluoro-cyclohexyl)-2(S)-hydroxy-pentyl]-amide], the melting point is 174 to 176 °C.
In turn, `CNC(=O)[C@H](CCC(C)C)C[C@H](O)[C@H](Cc1cccc(F)c1)NC(=O)c1cnc2ccccc2n1` [Example 134, Quinoxaline-2-carboxylic acid [1(S)-(3-fluoro-benzyl)-2(S)-hydroxy-7-methyl-4(R)-methylcarbamoyl-octyl]-amide] had a melting point of 158.5 to 159.5 °C.
